Assay results reported in patent US7273723B2, “Antibiotic-based gene regulation system” (priority 2001, dated 2007).

Assays:
[1] = system: ET1 (MphR(A)-VP16) / PETR promoters; assay: SEAP reporter assay, CHO lines stably expressing ET1 (CHO-ET11, CHO-ET12) transiently transfected with PETR-SEAP plasmids; type: cell-based; details: for SEAP production [%]: CHO-ET11 transiently transfected with pWW38, 48 h, antibiotic 2 μg/ml, no macrolide = 100
Method: (§1) Chinese hamster ovary cells (CHO-K1, ATCC: CCL 61), and HeLa cells (ATCC: CRL-7923) as well as stable cell lines derived thereof were cultured as described before (Fussenegger et al., 1998, Nat. Biotechnol. 16,468-472) in the presence of appropriate antibiotics: G418 400 μg/ml; zeocin 100 μg/ml. Optimized CaPO4 protocols were used for high efficiency transient transfection of all cell lines (Fussenegger et al., 1998. Nat. Biotechnol. 16: 468-472). Transiently transfected cells were routinely analyzed after 48 h for CFP or SEAP expression using fluorescence microscopy and p-nitrophenolphosphate-based light absorbance timecourse, respectively, as described before (Fussenegger et al., 1998, Nat. Biotechnol. 16, 468-472; Berger et al., 1988, Gene 66, 1-10 b). For construction of stable CHO-ET1 and CHO-Triplet42 cell lines, CHO-Ki and CHO-TWIN1108 (Disclosed in PCT application no. 00/65080) were cotransfected with pWW35 and pZeoSV2 (invitrogen). CHO-ET11-SEAP was constructed by cotransfection of pWW38 and pSV2neo (Clontech) into CHO-ET11. The mixed populations were cloned using FACS-mediated single-cell-sorting (FACStar^Plus; Beckton Dickinson). For assessment of dose-response characteristics of PETR3-regulated gene expression, CHO-ET11-SEAP were cultured at cell densities of 50,000/ml for 48 h at various EM concentrations.
(§2) Other antibiotics were eluted from antibiotic test discs (Mast Diagnostica GmbH, Reinfeld, Germany, or bioMérieux, Geneva Switzerland) in cell culture medium at 37° C. for 12 h to reach a final concentration of 30 μg/ml. All macrolide antibiotics were used at a 2 μg/ml concentration unless indicated otherwise.
Two representative clones, CHO-ET11 and CHO-ET12, were chosen at random among ET1-expressing CHO cell clones stably transfected with a constitutive ET1 expression construct (pWW35).
Access to alternative effective antibiotics would expand the spectrum of regulating agents available for future use in human cell and gene therapy. Accordingly, several commercially available antibiotic sources were tested for their potential to regulate the ET1/PETR3 system as shown below in Table 3.
The effect of the different spacer length in promoters PETR2 and PETR7-PETR11 were examined by transfecting the corresponding plasmids (pWW37, pBP10-pBP14) into a CHO cell line stably transfected with the transactivator ET1 (MphR(A)-VP 16, see example 1).

[2] = saliva, sputum, lung tissue, epithelial lining fluid, alveolar macrophages, neutrophils, tonsils, nasal mucosa, middle ear fluid; cited from earlier work
[3] = system: ET1 / erythromycin-responsive promoter PETR3; assay: SEAP assay in CHO-Triplet42 transfected with PETR3-SEAP (pWW38); type: cell-based; details: antibiotic 2 μg/ml; for SEAP activity [U/L]: CHO-Triplet42 + PWW38 (PETR3), 48 h
Method: as §1, §2
(§3) The regulation performance of the EM-based regulation system was compared directly with the widely used TET- and PIP responsive expression concepts. To this end, we have constructed a stable CHO-K1-derived cell line expressing ET1, PIT and tTA (CHO-Triplet42). […] CHO-Triplet42 was transfected with either isogenic (i) PETR3-(pWW38), (ii) a PPIR-(pristinamycin-responsive promoter, pMF172, Fussenegger et al., 2000. supra.), or (iii) a PhCMV*-1-(tetracycline-responsive promoter, pMF111, Fussenegger et al., 2000. supra) driven SEAP expression vector to assess the individual regulation performance of the three antibiotic-responsive gene regulation systems in CHO cells (Table 5).
(§4) To analyze the relative regulatory characteristics, we evaluated induction factors (IF; ratio of maximal expression level to antibiotic-repressed expression level).
(§5) These repressive effects are still in a range which is tolerable for use in potential medical applications.

[4] = system: PIT / pristinamycin-responsive promoter PPIR; assay: SEAP assay in CHO-Triplet42 transfected with PPIR-SEAP (pMF172); type: cell-based; details: for SEAP activity [U/L]: CHO-Triplet42 + pMF172 (PPIR), antibiotic 2 μg/ml, 48 h
Method: as §1, §2, §3, §4, §5

[5] = target: T1, tTA / tetracycline-responsive promoter PhCMV*-1 (Escherichia coli, UniProt P04483); assay: SEAP assay in CHO-Triplet42 transfected with PhCMV*-1-SEAP (pMF111); type: cell-based; details: antibiotic 2 μg/ml
T1 construct: expressed in transfected cells; host or cells: CHO-Triplet42 (from CHO-TWIN1108)
Method: as §1, §2

In the case of `CC[C@H]1OC(=O)[C@H](C)[C@@H](O[C@H]2C[C@@](C)(OC)[C@@H](O)[C@H](C)O2)[C@H](C)[C@@H](O[C@@H]2O[C@H](C)C[C@H](N(C)C)[C@H]2O)[C@](C)(O)C[C@@H](C)CN(C)[C@H](C)[C@@H](O)[C@]1(C)O` [Azithromycin], the “SEAP production [%]” value [1] is reported as 57.6 ± 4.4%.
For `CO/N=C(\C(=O)N[C@@H]1C(=O)N2C(C(=O)O)=C(CSc3nc(=O)c(=O)[nH]n3C)CS[C@H]12)c1csc(N)n1` [Ceftriaxone], the “SEAP production [%]” value [1] was 28.8 ± 1.8%.
For `CC[C@H]1OC(=O)[C@H](C)[C@@H](O[C@H]2C[C@@](C)(OC)[C@@H](O)[C@H](C)O2)[C@H](C)[C@@H](O[C@@H]2O[C@H](C)C[C@H](N(C)C)[C@H]2O)[C@](C)(OC)C[C@@H](C)C(=O)[C@H](C)[C@@H](O)[C@]1(C)O` [Clarithromycin], the “Induction factor (ratio of SEAP activity without antibiotic to SEAP activity with antibiotic)” value ([1]; CHO-ET11 + pWW38, 2 μg/ml) is given as 23, the “SEAP production [%]” value [1] is given as 4.3 ± 0.3% and the “diffusion into tissues and fluids” value [2] is given as “extensive diffusion”.
In the case of `CC[C@H]1OC(=O)[C@H](C)[C@@H](O[C@H]2C[C@@](C)(OC)[C@@H](O)[C@H](C)O2)[C@H](C)[C@@H](O[C@@H]2O[C@H](C)C[C@H](N(C)C)[C@H]2O)[C@](C)(O)C[C@@H](C)/C(=N\OCOCCOC)[C@H](C)[C@@H](O)[C@]1(C)O` [Roxithromycin], the “SEAP production [%]” value [1] is reported as 18.1 ± 0.9%.
With `CN(C)[C@@H]1C(O)=C(C(N)=O)C(=O)[C@@]2(O)C(O)=C3C(=O)c4c(O)cccc4[C@@](C)(O)[C@H]3C[C@@H]12` [Tet, tetracycline] the “SEAP activity [U/L]” value [3] was 55.0 ± 8.3 U/L and the “SEAP activity [U/L]” value [4] was 4.6 ± 0.4 U/L.
In the case of `CC[C@H]1OC(=O)C[C@@H](O)[C@H](C)[C@@H](O[C@@H]2O[C@H](C)[C@@H](O[C@H]3C[C@@](C)(O)[C@@H](O)[C@H](C)O3)[C@H](N(C)C)[C@H]2O)[C@@H](CC=O)C[C@@H](C)C(=O)/C=C/C(C)=C/[C@@H]1CO[C@@H]1O[C@H](C)[C@@H](O)[C@@H](OC)[C@H]1OC` [Tylosin], the “SEAP production [%]” value [1] is reported as 30.9 ± 3.2%.
For pristinamycin I [PI], the “SEAP activity [U/L]” value [3] was 71.9 ± 7.0 U/L, the “Antibiotic crossregulation of PETR3” value ([3]; CHO-Triplet42 + pWW38) was “no significant interference” and the “SEAP activity [U/L]” value [4] was 2.2 ± 0.1 U/L. The Induction factor ([4]; Pip-system in CHO-Triplet42) was “three-fold”, the “SEAP activity [U/L]” value ([5]; CHO-Triplet42 + pMF111 (PhCMV*-1), 48 h) was 87.9 ± 7.0 U/L and the “Antibiotic crossregulation of PhCMV*-1” value ([5]; CHO-Triplet42 + pMF111) was “no significant interference”.
